Measured values as given in publication PMC7719179, “Small molecule inhibition of Dynamin-dependent endocytosis targets multiple niche signals and impairs leukemia stem cells” (Nature Communications, 2020).
Values joined by “and” are separate entries in the source; they are usually repeats but may differ in a detail not shown here. Identical values can stand only once.

Columns and labels:
[1] = test system: DN3a T-cell progenitors of Lmo2^Tg mice; experiment: Thymocyte populations (DN3a, DN1-DN4) in the thymus of treated Lmo2^Tg mice; assay type: in vivo, mouse
Description: The synthesis of Dynole 34-2 and Dyngo 4a compounds was performed as previously described[32],[33] and was kindly provided by A. McCluskey. For in vitro assays, the specific Dynamin inhibitors Dynole 34-2, Dyngo 4a and Dynasore (#S8047, Selleckchem, Sapphire Bioscience Pty Ltd, Redfern NSW, Australia) were made as stock solutions in 100% dimethyl sulfoxide (DMSO), which were stored frozen. These compounds were diluted in 50% v/v DMSO/20 mM Tris-HCl pH 7.4 immediately prior to use. For in vivo administration, Dynole 34-2 was resuspended in pre-warmed HRC#5 (Pharmatek, San Diego CA, USA) 1 : 9 phosphate-buffered saline (PBS) 1× pH 7.4 at 37 °C, and sonicated 10 times for 30 s using a Bioruptor Plus (Biogenode) immediately prior to injection at 30 mg/kg, twice daily.
Flow cytometry analyses were performed as previously described[10],[86] on single-cell suspensions stained using BD Pharmingen antibodies (BD Australia, North Ryde NSW, Australia) against mouse CD4 (RM4-5), CD8 (53-6.7), CD25 (PC61.5), CD44 (IM7), CD45.1 (A20), CD45.2 (104), Thy1.2 (53-2.1; #561616), TCRβ (H57-597), CD117 (ACK45), CD135 (A2F10.1), CD150 (TC15-12F12.2; #562373), B220 (RA3-6B2; #563708), CD3 (145-2C11; #563004), CD19 (ID3; #557655), Gr-1 (RB6-8C5; #563299 and #565033), CD11b (M1/70; #563015 and #560455), Ter119 (Ter119; #565523 and #557909), Sca-1 (D7; #558160) and an eBioscience antibody (eBioscience, Invitrogen) against mouse NOTCH1 (22E5). DN3 populations and IL-7R were stained using BioLegend antibodies (Australian Biosearch, Balcatta WA, Australia) against mouse CD28 (E18) and CD127 (A7R34), respectively. Apoptosis was measured using an antibody against AnnexinV (#556420, BD Australia) and the […] Sytox Blue (BD Australia) following the manufacturer’s protocol.
All experiments were pre-approved by the AMREP Animal Ethics Committee. The current study was performed by using the previously described CD2-Lmo2 (Lmo2^Tg) mouse model. Mice cohorts were generated by cross-breeding with the Lck-Notch1-IC9 (N1-ICD^Tg)[45] generously given by T. Hoang[86], the Lck-STAT5b-CA (STAT5-CA^Tg)[88] kindly given by M.P. McCormack, the Mx1-Cre transgenic (Mx)[89] and the ROSA26-YFP Cre-reporter (YFP)[90] mouse strains. All mouse lines were backcrossed onto a C57BL/6J background for ten generations and maintained in pathogen-free conditions according to institutional animal care guidelines.

[2] = test system: leukemogenicity of pre-LSCs; experiment: Time to leukemia of recipients injected with thymocytes from treated Lmo2^Tg mice; assay type: in vivo, mouse; settings: for Time to leukemia / Time to leukemia (days): * non-leukemic at endpoint
Description: Fold expansion was calculated by dividing the absolute output number of donor-derived DN3a cells harvested at the experimental endpoint by the respective number of DN3a thymocytes injected in each recipient. […] Leukemia-propagating cell frequency was calculated by applying Poisson statistics using the ELDA: Extreme Limiting Dilution Analysis software (Walter and Eliza Hall Institute Bioinformatics, Parkville VIC, Australia)[96]. Limiting dilution transplantations were performed independently from any other transplantation assays, using thymocytes from three different Lmo2^Tg mice for each cohort. […] Log-rank (Mantel -Cox)

in vitro = settings: mouse, Relative % viable cells
[3] = thymus of treated Lmo2^Tg mice, absolute numbers vs vehicle (response to reviewers)
[4] = thymus of treated Lmo2^Tg mice, individual mice

In the case of CCCCCCCCNC(=O)C(C#N)=Cc1cn(CCCN(C)C)c2ccccc12 [Dynole 34-2, 2-Cyano-N-octyl-3-(1-(3-dimethylaminopropyl)-1H-indol-3-yl)-acrylamide], the “reduction in the numbers of DN3a thymocytes” value ([1]; Lmo2^Tg mice at end of treatment, vs vehicle, in words) is reported as “tenfold reduction”, the “Absolute numbers DN3a cells” value ([1]; thymus of 6-week-old Lmo2^Tg mice after two rounds of treatment, individual animals (Fig 4a)) is reported as 1380000 and 2260000 and 730000 and 1690000 and 1100000 and the “Absolute numbers DN3a cells” value ([1]; thymus of 6-week-old Lmo2^Tg mice, 30 mg/kg i.p. twice daily, 5 days on 2 consecutive weeks, individual animals (Fig 3a), 30 mg/kg) is reported as 197000 and 290000 and 173000 and 171000 and 222000 and 359000. For the same molecule, the “decrease in DN3a thymocytes when combined with VXL, as compared to VXL alone” value ([1]; thymus of treated Lmo2^Tg mice (response to reviewers)) was 75%, the “decrease in DN1 cells” value [1, 3] was 56% and the “decrease in DN2 cells” value [1, 3] was 45%. The “decrease in DN3a cells” value [1, 3] was 64%, the “increase in DN4 cells” value [1, 3] was 134% and the “Proportion of DN cells (% DN), DN1” value [1, 4] was 1.8 % DN and 1.3 % DN and 3.9 % DN and 6.4 % DN and 2.8 % DN. For the same molecule, the “Proportion of DN cells (% DN), DN2” value [1, 4] was 1 % DN and 0.2 % DN and 0.4 % DN and 0.1 % DN and 0.5 % DN, the “Proportion of DN cells (% DN), DN3” value [1, 4] was 18.3 % DN and 14.1 % DN and 34.4 % DN and 43.5 % DN and 16.6 % DN and the “Proportion of DN cells (% DN), DN4” value [1, 4] was 79.5 % DN and 84.5 % DN and 61.1 % DN and 49.1 % DN and 80.5 % DN. For the same molecule, the “Time to leukemia” value ([2]; Supplementary Figure 3h) was 138 days and 132 days and 116 days and 149 days, the “Time to leukemia (days)” value ([2]; Supplementary Figure 3h) was > 210* days and the “Time to leukemia” value ([2]; Supplementary Figure 4d) was 170 days and 151 days and 119 days and 142 days. The “Time to leukemia (days)” value ([2]; Supplementary Figure 4d) was > 210* days and the “leukemogenic potential of pre-LSCs / progression to leukemia in recipients” value ([2]; recipients of thymocytes from treated Lmo2^Tg mice, result in words) was “delayed progression to leukemia”.

Work on N#CC[C@H](C1CCCC1)n1cc(-c2ncnc3[nH]ccc23)cn1 [Ruxolitinib] yielded a viability at 48 h, 0.04 mM (in vitro) of 83.2% and a viability at 48 h, 0.2 mM (in vitro) of 39.6%.
